Test results reported in patent publication US20250136576A1, “Heterocyclic Compounds and Uses Thereof” (ACEA Therapeutics, Inc., priority 2021, published 2025).
Like-named read-outs stand apart in the source and are kept apart here.

Tested on: KM12-luc cells
Test: Cell proliferation and growth inhibition assay (CCK-8) in KM12-luc
Type: cell-based
Details: KM12-luc cells, treated with test compounds for 72 hrs, CCK-8 viability, read-out: NTRK IC50 in KM12-luc
Summary of the method: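 IC50 values were fitted by sigmoidal dose-response non-linear regression of CCK-8 OD450 absorbance after 1-4 hrs with reagent. Culture media were IMDM for MV-4-11, RPMI 1640 for H1975 and DMEM for KM12-luc, each with 10% FBS at 37 °C, 5% CO2.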

CCN(CCN(C)C)c1ccc(Nc2ncc(Cl)c(-c3cn(C)c4ccccc34)n2)cc1NC(C)=O [Compound 397, N-(5-((5-chloro-4-(1-methyl-1H-indol-3-yl)pyrimidin-2-yl)amino)-2-((2-(dimethylamino)ethyl)(ethyl)amino)phenyl)acetamide]
IC50 (KM12-Luc, 72 h): 180 nM

CCN(CCN(C)C)c1c(F)cc(Nc2ncc(Cl)c(-c3cn(C)c4ccccc34)n2)cc1NC(C)=O [Compound 398, N-(5-((5-chloro-4-(1-methyl-1H-indol-3-yl)pyrimidin-2-yl)amino)-2-((2-(dimethylamino)ethyl)(ethyl)amino)-3-fluorophenyl)acetamide]
IC50 (KM12-Luc, 72 h): 196 nM

Cc1nc2cc(Nc3ncc(Cl)c(-c4cn(C)c5ccccc45)n3)ccc2n1CCN(C)C [Compound 400b, N-(5-chloro-4-(1-methyl-1H-indol-3-yl)pyrimidin-2-yl)-1-(2-(dimethylamino)ethyl)-2-methyl-1H-benzo[d]imidazol-5-amine]
IC50 (KM12-Luc, 72 h): 71.5 nM

CC(=O)Nc1cc(Nc2ncc(Cl)c(-c3cn(C)c4ccccc34)n2)cc(F)c1N1CCC(N(C)C)C1 (centres unmarked) [Compound 401, N-(5-((5-chloro-4-(1-methyl-1H-indol-3-yl)pyrimidin-2-yl)amino)-2-(3-(dimethylamino)pyrrolidin-1-yl)-3-fluorophenyl)acetamide]
IC50 (KM12-Luc, 72 h): 49.5 nM

CC(=O)Nc1cc(Nc2ncc(Cl)c(-c3cn(C)c4ccccc34)n2)ccc1N(C)C(=O)CN(C)C [Compound 403, N-(2-acetamido-4-((5-chloro-4-(1-methyl-1H-indol-3-yl)pyrimidin-2-yl)amino)phenyl)-2-(dimethylamino)-N-methylacetamide]
IC50 (KM12-Luc, 72 h): 46.5 nM

CC(=O)Nc1cc(Nc2ncc(Cl)c(-c3cn(C)c4ccccc34)n2)ccc1N(C)C(=O)CCN(C)C [Compound 404, N-(2-acetamido-4-((5-chloro-4-(1-methyl-1H-indol-3-yl)pyrimidin-2-yl)amino)phenyl)-3-(dimethylamino)-N-methylpropanamide]
IC50 (KM12-Luc, 72 h): 26.5 nM

CCN(C(=O)CN(C)C)c1ccc(Nc2ncc(Cl)c(-c3cn(C)c4ccccc34)n2)cc1NC(C)=O [Compound 405, N-(2-acetamido-4-((5-chloro-4-(1-methyl-1H-indol-3-yl)pyrimidin-2-yl)amino)phenyl)-2-(dimethylamino)-N-ethylacetamide]
IC50 (KM12-Luc, 72 h): > 1000 nM

CCN(C(=O)CCN(C)C)c1ccc(Nc2ncc(Cl)c(-c3cn(C)c4ccccc34)n2)cc1NC(C)=O [Compound 406, N-(2-acetamido-4-((5-chloro-4-(1-methyl-1H-indol-3-yl)pyrimidin-2-yl)amino)phenyl)-3-(dimethylamino)-N-ethylpropanamid]
IC50 (KM12-Luc, 72 h): 60.1 nM

CC(=O)Nc1cc(Nc2ncc(Cl)c(-c3cn(C)c4ccccc34)n2)ccc1NC(=O)CN(C)C [Compound 407, N-(2-acetamido-4-((5-chloro-4-(1-methyl-1H-indol-3-yl)pyrimidin-2-yl)amino)phenyl)-2-(dimethylamino)acetamide]
IC50 (KM12-Luc, 72 h): 44.4 nM

CC(=O)Nc1cc(Nc2ncc(Cl)c(-c3cn(C)c4ccccc34)n2)ccc1NC(=O)CCN(C)C [Compound 408, N-(2-acetamido-4-((5-chloro-4-(1-methyl-1H-indol-3-yl)pyrimidin-2-yl)amino)phenyl)-3-(dimethylamino)propanamide]
IC50 (KM12-Luc, 72 h): 19.7 nM

CN(C)CCN(C)c1ccc(Nc2ncc(Cl)c(-c3c[nH]c4c(F)cccc34)n2)cc1N [Compound 411, N^4-(5-chloro-4-(7-fluoro-1H-indol-3-yl)pyrimidin-2-yl)-N^1-(2-(dimethylamino)ethyl)-N^1-methylbenzene-1,2,4-triamine]
IC50 (KM12-Luc, 72 h): 12.8 nM

CN(C)CCN(C)c1ccc(Nc2ncc(Cl)c(-c3cn(C)c4c(F)cccc34)n2)cc1N [Compound 417, N^4-(5-chloro-4-(7-fluoro-1-methyl-1H-indol-3-yl)pyrimidin-2-yl)-N^1-(2-(dimethylamino)ethyl)-N^1-methylbenzene-1,2,4-triamine]
IC50 (KM12-Luc, 72 h): 94.2 nM

CC(=O)Nc1cc(Nc2ncc(Cl)c(-c3cn(C)c4c(F)cccc34)n2)ccc1N(C)CCN(C)C [Compound 418, N-(5-((5-chloro-4-(7-fluoro-1-methyl-1H-indol-3-yl)pyrimidin-2-yl)amino)-2-((2-(dimethylamino)ethyl)(methyl)amino)phenyl)acetamide]
IC50 (KM12-Luc, 72 h): 79.2 nM

Cc1cccc2c(-c3nc(Nc4ccc(N(C)CCN(C)C)c(N)c4)ncc3Cl)cn(C)c12 [Compound 428, N^4-(5-chloro-4-(1,7-dimethyl-1H-indol-3-yl)pyrimidin-2-yl)-N^1-(2-(dimethylamino)ethyl)-N^1-methylbenzene-1,2,4-triamine]
IC50 (KM12-Luc, 72 h): 46.4 nM

CC(=O)Nc1cc(Nc2ncc(Cl)c(-c3cn(C)c4c(C)cccc34)n2)ccc1N(C)CCN(C)C [Compound 429, N-(5-((5-chloro-4-(1,7-dimethyl-1H-indol-3-yl)pyrimidin-2-yl)amino)-2-((2-(dimethylamino)ethyl)(methyl)amino)phenyl)acetamide]
IC50 (KM12-Luc, 72 h): 475 nM

COc1cccc2c(-c3nc(Nc4ccc(N(C)CCN(C)C)c(NC(C)=O)c4)ncc3Cl)cn(C)c12 [Compound 434, N-(5-(5-chloro-4-(7-methoxy-1-methyl-1H-indol-3-yl)pyrimidin-2-ylamino)-2-((2-(dimethylamino)ethyl)(methyl)amino)phenyl)acetamide]
IC50 (KM12-Luc, 72 h): 97.1 nM

COc1cccc2c(-c3nc(Nc4ccc(N(C)CCN(C)C)c(N)c4)ncc3Cl)cn(C)c12 [Compound 437, N^4-(5-chloro-4-(7-methoxy-1-methyl-H-indol-3-yl)pyrimidin-2-yl)-N^1-(2-(dimethylamino)ethyl)-N^1-methylbenzene-1,2,4-triamine]
IC50 (KM12-Luc, 72 h): 109 nM

CC(=O)Nc1cc(Nc2ncc(Cl)c(-c3c[nH]c4ccccc34)n2)ccc1N(C)CCN(C)C [Compound 440]
IC50: 7 nM

CC(=O)Nc1cc(Nc2ncc(Cl)c(-c3c[nH]c4ccccc34)n2)cc(F)c1N(C)CCN(C)C [Compound 441, N-(5-((5-chloro-4-(1H-indol-3-yl)pyrimidin-2-yl)amino)-2-((2-(dimethylamino)ethyl)(methyl)amino)-3-fluorophenyl)acetamide]
IC50 (KM12-Luc, 72 h): 24.9 nM

CCN(CCN(C)C)c1c(F)cc(Nc2ncc(Cl)c(-c3c[nH]c4ccccc34)n2)cc1NC(C)=O [Compound 443, N-(5-((5-chloro-4-(1H-indol-3-yl)pyrimidin-2-yl)amino)-2-((2-(dimethylamino)ethyl) (ethyl)amino)-3-fluorophenyl)acetamide]
IC50 (KM12-Luc, 72 h): 33.3 nM

CCN(C(=O)CN(C)C)c1ccc(Nc2ncc(Cl)c(-c3c[nH]c4ccccc34)n2)cc1N [Compound 448, N-(2-amino-4-((5-chloro-4-(1H-indol-3-yl)pyrimidin-2-yl)amino)phenyl)-2-(dimethylamino)-N-ethylacetamide]
IC50 (KM12-Luc, 72 h): > 1000 nM

CCN(C(=O)CN(C)C)c1ccc(Nc2ncc(Cl)c(-c3c[nH]c4ccccc34)n2)cc1NC(C)=O [Compound 449, N-(2-acetamido-4-((5-chloro-4-(1H-indol-3-yl)pyrimidin-2-yl)amino)phenyl)-2-(dimethylamino)-N-ethylacetamide]
IC50 (KM12-Luc, 72 h): > 1000 nM

CCN(C(=O)CCN(C)C)c1ccc(Nc2ncc(Cl)c(-c3c[nH]c4ccccc34)n2)cc1NC(C)=O [Compound 451, N-(2-acetamido-4-((5-chloro-4-(1H-indol-3-yl)pyrimidin-2-yl)amino)phenyl)-3-(dimethylamino)-N-ethylpropanamide]
IC50 (KM12-Luc, 72 h): 14.2 nM
